The values that follow come from PubChem BioAssay AID220 (DTP/NCI, 2004).

Several values for one entry are separate records, joined by “and”; a condition that tells them apart may be missing. Identical values can stand only once. Records with an inconclusive call do not appear.

The assay relates to CD8F1 mice, subcutaneous mammary adenocarcinoma, T/C%. The assay can be described thus: NCI In Vivo Anticancer Drug Screen. Data for tumor model Mammary Adenocarcinoma CD8F1 (subcutaneous) in CD8F1. As to conditions: higher = larger tumour. The protocol: The antitumor activity of compounds was measured in mice bearing transplantable tumors. Survival or tumor size were measured and the results are expressed as the measurement made in the treated group (T) divided by the measurement made in the vehicle treated control group (C). The tumor model used in this assay is Mammary Adenocarcinoma CD8F1 (subcutaneous) in CD8F1

Setting [1] is: endpoint: median tumor weight change, dose: 100.0 mg/kg/injection, schedule: Q01DX001 (ip), vehicle: saline with Tween-80.
[2] abbreviates: endpoint: median tumor weight change, dose: 200.0 mg/kg/injection, schedule: Q01DX001 (ip), vehicle: saline with Tween-80.
Where [3] appears, read: endpoint: median tumor weight (est.), dose: 16.0 mg/kg/injection, schedule: Q07DX005 (ip), vehicle: Klucel (hydroxypropylcellulose) (HPC).

Take `O=C(O)C(O)C(O)C1[O][Sb][O]C1C(=O)O` (configuration not stated): the T/C is 115 % of control (endpoint: median tumor weight change, dose: 31.0 mg/kg/injection, schedule: Q01DX001 (ip), vehicle: saline) and 93 % of control (endpoint: median tumor weight change, dose: 62.0 mg/kg/injection, schedule: Q01DX001 (ip), vehicle: saline).

Regarding `O=C1N[C@@H]([C@H]2CC[C@H](Cl)CN2)C(=O)N[C@H]1[C@H]1CC[C@H](Cl)CN1`, the T/C is 40 % of control (endpoint: median tumor weight (est.), dose: 0.75 mg/kg/injection, schedule: Q07DX005 (ip), vehicle: saline); 29 % of control (endpoint: median tumor weight (est.), dose: 1.5 mg/kg/injection, schedule: Q07DX005 (ip), vehicle: saline); 11 % of control (endpoint: median tumor weight (est.), dose: 3.0 mg/kg/injection, schedule: Q07DX005 (ip), vehicle: saline).

In the case of `COc1ccc(CC2C(=O)NC(C)C(=O)N(C)C3C(=O)N(C)C(Cc4ccc(O)c(c4)Oc4ccc(cc4)C3O)C(=O)NC(C)C(=O)NC(C)C(=O)N2C)cc1` (configuration not stated), the T/C is 116 % of control (endpoint: median tumor weight (est.), dose: 0.12 mg/kg/injection, schedule: Q07DX005 (ip), vehicle: suspension in saline); 93 % of control (endpoint: median tumor weight (est.), dose: 0.25 mg/kg/injection, schedule: Q07DX005 (ip), vehicle: suspension in saline); 95 % of control (endpoint: median tumor weight (est.), dose: 0.5 mg/kg/injection, schedule: Q07DX005 (ip), vehicle: suspension in saline); 94 % of control (endpoint: median tumor weight (est.), dose: 1.0 mg/kg/injection, schedule: Q07DX005 (ip), vehicle: suspension in saline); 99 % of control (endpoint: median tumor weight (est.), dose: 2.0 mg/kg/injection, schedule: Q07DX005 (ip), vehicle: suspension in saline); 114 % of control (endpoint: median tumor weight (est.), dose: 4.0 mg/kg/injection, schedule: Q07DX005 (ip), vehicle: suspension in saline).

Consider `CCN1/C(=C/C=C/C=C\C=C\c2sc3ccc4ccccc4c3[n+]2CC)Sc2ccc3ccccc3c21`, for which the T/C by setting is: (endpoint: median tumor weight change, dose: 25.0 mg/kg/injection, schedule: Q01DX001 (ip), vehicle: saline with Tween-80) 70 % of control and 76 % of control; under setting [1], 32 % of control and 53 % of control; under setting [2], 69 % of control.

Take `Nc1ncnc2c1ncn2C1OC(CO)CC1O` (configuration not stated): the T/C runs as follows: (endpoint: median tumor weight (est.), dose: 37.5 mg/kg/injection, schedule: Q07DX005 (ip), vehicle: Klucel (hydroxypropylcellulose) (HPC)) 102 % of control; (endpoint: median tumor weight (est.), dose: 75.0 mg/kg/injection, schedule: Q07DX005 (ip), vehicle: Klucel (hydroxypropylcellulose) (HPC)) 88 % of control.

As to `CCN(CC)CCCC(C)Nc1c2ccc(Cl)cc2nc2ccc(OC)cc12` (configuration not stated), the T/C by setting is: (endpoint: median tumor weight (est.), dose: 12.5 mg/kg/injection, schedule: Q07DX005 (ip), vehicle: saline) 88 % of control; (endpoint: median tumor weight (est.), dose: 25.0 mg/kg/injection, schedule: Q07DX005 (ip), vehicle: saline) 65 % of control; (endpoint: median tumor weight (est.), dose: 25.0 mg/kg/injection, schedule: Q07DX005 (ip), vehicle: suspension in saline) 60 % of control; (endpoint: median tumor weight (est.), dose: 50.0 mg/kg/injection, schedule: Q07DX005 (ip), vehicle: saline) 90 % of control; (endpoint: median tumor weight (est.), dose: 50.0 mg/kg/injection, schedule: Q07DX005 (ip), vehicle: suspension in saline) 94 % of control; (endpoint: median tumor weight (est.), dose: 100.0 mg/kg/injection, schedule: Q07DX005 (ip), vehicle: saline) 74 % of control. The T/C (endpoint: median tumor weight (est.), dose: 100.0 mg/kg/injection, schedule: Q07DX005 (ip), vehicle: suspension in saline) is 50 % of control.

For the compound `CC1CCC(NC(=O)N(CCCl)N=O)CC1` (configuration not stated), the T/C is 108 % of control (endpoint: mean tumor weight, dose: 6.25 mg/kg/injection, schedule: Q01DX009 (ip), vehicle: saline + alcohol); 214 % of control (endpoint: mean tumor weight, dose: 6.25 mg/kg/injection, schedule: Q01DX009 (ip), vehicle: saline); 27 % of control (endpoint: mean tumor weight, dose: 12.5 mg/kg/injection, schedule: Q01DX009 (ip), vehicle: saline + alcohol); 50 % of control (endpoint: mean tumor weight, dose: 12.5 mg/kg/injection, schedule: Q01DX009 (ip), vehicle: saline); 63 % of control (endpoint: mean tumor weight, dose: 12.5 mg/kg/injection, schedule: Q07DX006 (ip), vehicle: saline + alcohol); 24 % of control (endpoint: mean tumor weight, dose: 12.5 mg/kg/injection, schedule: Q07DX006 (ip), vehicle: saline). The T/C was 124 % of control (endpoint: mean tumor weight, dose: 12.5 mg/kg/injection, schedule: Q07DX007 (ip), vehicle: saline + alcohol); 47 % of control (endpoint: mean tumor weight, dose: 25.0 mg/kg/injection, schedule: Q01DX009 (ip), vehicle: saline); 28 % of control (endpoint: mean tumor weight, dose: 25.0 mg/kg/injection, schedule: Q07DX006 (ip), vehicle: saline + alcohol); 48 % of control (endpoint: mean tumor weight, dose: 25.0 mg/kg/injection, schedule: Q07DX006 (ip), vehicle: saline); 100 % of control (endpoint: mean tumor weight, dose: 25.0 mg/kg/injection, schedule: Q07DX007 (ip), vehicle: saline + alcohol); 4 % of control (endpoint: mean tumor weight, dose: 50.0 mg/kg/injection, schedule: Q07DX006 (ip), vehicle: saline + alcohol). In addition, the T/C (endpoint: mean tumor weight, dose: 50.0 mg/kg/injection, schedule: Q07DX006 (ip), vehicle: saline) is 7 % of control; the T/C (endpoint: mean tumor weight, dose: 50.0 mg/kg/injection, schedule: Q07DX007 (ip), vehicle: saline + alcohol) was 66 % of control; the T/C (endpoint: median tumor weight (est.), dose: 2.0 mg/kg/injection, schedule: Q07DX005 (ip), vehicle: Klucel (hydroxypropylcellulose) (HPC)) is 98 % of control; the T/C (endpoint: median tumor weight (est.), dose: 4.0 mg/kg/injection, schedule: Q07DX005 (ip), vehicle: Klucel (hydroxypropylcellulose) (HPC)) is 50 % of control; the T/C (endpoint: median tumor weight (est.), dose: 8.0 mg/kg/injection, schedule: Q07DX005 (ip), vehicle: Klucel (hydroxypropylcellulose) (HPC)) was 38 % of control; the T/C under setting [3] is 24 % of control. Besides, the T/C runs as follows: (endpoint: median tumor weight change, dose: 8.0 mg/kg/injection, schedule: Q01DX001 (ip), vehicle: Klucel (hydroxypropylcellulose) (HPC)) 98 % of control; (endpoint: median tumor weight change, dose: 13.8 mg/kg/injection, schedule: Q01DX001 (ip), vehicle: Klucel (hydroxypropylcellulose) (HPC)) 68 % of control; (endpoint: median tumor weight change, dose: 16.0 mg/kg/injection, schedule: Q01DX001 (ip), vehicle: Klucel (hydroxypropylcellulose) (HPC)) 78 % of control; (endpoint: median tumor weight change, dose: 23.0 mg/kg/injection, schedule: Q01DX001 (ip), vehicle: Klucel (hydroxypropylcellulose) (HPC)) 23 % of control; (endpoint: median tumor weight change, dose: 32.0 mg/kg/injection, schedule: Q01DX001 (ip), vehicle: Klucel (hydroxypropylcellulose) (HPC)) 42 % of control; (endpoint: median tumor weight change, dose: 38.4 mg/kg/injection, schedule: Q01DX001 (ip), vehicle: Klucel (hydroxypropylcellulose) (HPC)) -12 % of control. For the same compound, the T/C (endpoint: median tumor weight change, dose: 64.0 mg/kg/injection, schedule: Q01DX001 (ip), vehicle: Klucel (hydroxypropylcellulose) (HPC)) is -13 % of control and -32 % of control.

Turning to `COc1cc2c(c(OC)c1OC)-c1c(cc3c(c1OC)OCO3)CC(C)C(C)(O)C2OC(=O)c1ccccc1` (configuration not stated), the T/C was 93 % of control (endpoint: median tumor weight change, dose: 31.0 mg/kg/injection, schedule: Q01DX001 (ip), vehicle: saline + Tween-80 + alcohol); 121 % of control (endpoint: median tumor weight change, dose: 125.0 mg/kg/injection, schedule: Q01DX001 (ip), vehicle: saline + Tween-80 + alcohol); 95 % of control (endpoint: median tumor weight change, dose: 250.0 mg/kg/injection, schedule: Q01DX001 (ip), vehicle: saline + Tween-80 + alcohol); 110 % of control (endpoint: median tumor weight change, dose: 500.0 mg/kg/injection, schedule: Q01DX001 (ip), vehicle: saline + Tween-80 + alcohol); 96 % of control (endpoint: median tumor weight change, dose: 900.0 mg/kg/injection, schedule: Q01DX001 (ip), vehicle: saline + alcohol); 124 % of control (endpoint: median tumor weight change, dose: 1800.0 mg/kg/injection, schedule: Q01DX001 (ip), vehicle: saline + alcohol). Moreover, where the note is “endpoint: median tumor weight change, dose: 3600.0 mg/kg/injection, schedule: Q01DX001 (ip), vehicle: saline + alcohol”, the T/C was 59 % of control.

Turning to `C[n+]1ccc(Nc2ccc(NC(=O)c3ccc(Nc4cc[n+](C)c5ccc(N)cc45)cc3)cc2)cc1`, the T/C is, setting by setting: under setting [3], 51 % of control and 65 % of control; (endpoint: median tumor weight (est.), dose: 32.0 mg/kg/injection, schedule: Q07DX005 (ip), vehicle: Klucel (hydroxypropylcellulose) (HPC)) 24 % of control and 25 % of control.

With `CCCN1COC(OCC)C(C)(C)C1` (configuration not stated), the T/C is 102 % of control (endpoint: median tumor weight change, dose: 50.0 mg/kg/injection, schedule: Q01DX001 (ip), vehicle: saline with Tween-80); 85 % of control under setting [1]; 66 % of control (endpoint: median tumor weight change, dose: 125.0 mg/kg/injection, schedule: Q01DX001 (ip), vehicle: saline with Tween-80); 84 % of control under setting [2]; 47 % of control (endpoint: median tumor weight change, dose: 250.0 mg/kg/injection, schedule: Q01DX001 (ip), vehicle: saline with Tween-80); 47 % of control (endpoint: median tumor weight change, dose: 500.0 mg/kg/injection, schedule: Q01DX001 (ip), vehicle: saline with Tween-80).

Turning to `CC(C)[NH-].CC(C)[NH-].O.O.[Cl][Pt+2][Cl]`, the T/C was 121 % of control (endpoint: median tumor weight (est.), dose: 6.25 mg/kg/injection, schedule: Q07DX005 (ip), vehicle: dextrose); 121 % of control (endpoint: median tumor weight (est.), dose: 12.5 mg/kg/injection, schedule: Q07DX005 (ip), vehicle: dextrose); 110 % of control (endpoint: median tumor weight (est.), dose: 25.0 mg/kg/injection, schedule: Q07DX005 (ip), vehicle: dextrose); 8 % of control (endpoint: median tumor weight (est.), dose: 50.0 mg/kg/injection, schedule: Q07DX005 (ip), vehicle: dextrose).
